Results taken from ChEMBL document CHEMBL6121055, “Strategic Mutations in Designer Native Peptides Combat NLRP3 Inflammasome Activation in Neurodegenerative Disorders” (J Med Chem, 2025).
pKd: −log10 of the molar value. Activity calls are given as the source filed them. The calls are words filed in the database; no cut-off is given here. Residues, ends and D or L forms follow the SMILES beside them. *: point of attachment. Biotin = O=C1N[C@H]2[C@H](CS[C@H]2CCCCC(=O)*)N1

Tests used:
[1] = test system: N9; experiment: Binding affinity to NLRP3 in LPS-stimulated mouse N9 cells at 10 to 30 uM incubated overnight by Western blot based pull down assay; assay type: cell-based; settings: dose 10-30 µM
[2] = molecular target: T1, Apoptosis-associated speck-like protein containing a CARD (Mus musculus) (UniProt Q9EPB4); experiment: Binding affinity to ASC in LPS-stimulated mouse N9 cells at 10 to 30 uM incubated overnight by Western blot based pull down assay; assay type: cell-based; settings: dose 10-30 µM
T1 sequence (whole entry): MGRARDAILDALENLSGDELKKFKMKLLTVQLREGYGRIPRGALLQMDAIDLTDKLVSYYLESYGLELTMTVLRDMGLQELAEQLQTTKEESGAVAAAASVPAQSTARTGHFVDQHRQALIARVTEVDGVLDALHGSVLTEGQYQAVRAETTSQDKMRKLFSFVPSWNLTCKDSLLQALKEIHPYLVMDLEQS

[3] = Cytotoxicity against mouse N9 cells assessed as reduction in cell viability at 100 uM incubated for 24 hrs by MTT assay; assay type: toxicity, cell-based; settings: n9, 24 h
[4] = test system: N9; experiment: Inhibition of NLRP3 inflammasome activation in LPS/ATP-stimulated mouse N9 cells assessed as inhibition of caspase-1 mRNA expression at 20 uM by qRT-PCR analysis; assay type: cell-based
[5] = test system: N9; experiment: Inhibition of NLRP3 inflammasome activation in LPS/ATP-stimulated mouse N9 cells assessed as inhibition of IL-1beta mRNA expression at 20 uM by qRT-PCR analysis; assay type: cell-based
[6] = test system: N9; experiment: Inhibition of NLRP3 inflammasome activation mediated pyroptosis in LPS/ATP-stimulated mouse N9 cells assessed as reduction in cell death at 100 uM measured after 24 hrs by MTT assay; assay type: cell-based
[7] = molecular target: Apoptosis-associated speck-like protein containing a CARD (Homo sapiens, UniProt Q9ULZ3); experiment: Binding affinity to Alexa647-labeled ASC (unknown origin) assessed as dissociation constant incubated for 5 mins by fluorescence spectra based analysis
Sequence of Apoptosis-associated speck-like protein containing a CARD (Q9ULZ3 whole entry): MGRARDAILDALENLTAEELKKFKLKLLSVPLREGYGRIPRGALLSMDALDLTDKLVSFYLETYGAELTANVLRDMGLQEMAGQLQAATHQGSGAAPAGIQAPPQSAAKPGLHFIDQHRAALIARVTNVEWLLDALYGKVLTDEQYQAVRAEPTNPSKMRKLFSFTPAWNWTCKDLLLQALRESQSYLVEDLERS

Row | Structure (SMILES) | Activity [3] | also measured
1 | CC[C@H](C)[C@H](NC(=O)[C@H](C)NC(=O)[C@H](C)NC(=O)[C@H](CC(C)C)NC(=O)[C@@H](NC(=O)[C@H](Cc1c[nH]c2ccccc12)NC(=O)[C@@H](NC(=O)CCCC[C@@H]1SC[C@@H]2NC(=O)N[C@@H]21)C(C)C)[C@@H](C)CC)C(=O)N[C@@H](CC(N)=O)C(=O)N[C@@H](CCCNC(=N)N)C(=O)N[C@@H](CCCNC(=N)N)C(=O)O (Biotin-VWILAAINRR-OH) | – | Activity [1]: inactive; Activity [2]: Active
2 | CC(C)C[C@H](NC(=O)[C@H](C)NC(=O)[C@@H](N)CC(=O)O)C(=O)N[C@@H](CCC(=O)O)C(=O)N[C@@H](CC(N)=O)C(=O)O (H-DALEN-OH) | Non-toxic | –
3 | CSCC[C@H](NC(=O)[C@H](CO)NC(=O)[C@H](C)NC(=O)[C@@H](NC(=O)[C@H](CC(C)C)NC(=O)[C@H](CC(N)=O)NC(=O)[C@H](CCC(=O)O)NC(=O)[C@H](CC(C)C)NC(=O)[C@H](C)NC(=O)[C@@H](N)CC(=O)O)[C@@H](C)O)C(=O)N[C@@H](CC(=O)O)C(=O)O (H-DALENLTASMD-OH) | Non-toxic | –
4 | CC[C@H](C)[C@H](NC(=O)[C@H](CCSC)NC(=O)[C@H](CC(C)C)NC(=O)[C@@H](NC(=O)[C@H](C)NC(=O)[C@H](CC(C)C)NC(=O)[C@@H](N)CC(=O)O)[C@@H](C)O)C(=O)N[C@@H](CC(=O)O)C(=O)N[C@@H](Cc1ccccc1)C(=O)O (H-DLATLMIDF-OH) | Non-toxic | –
5 | C[C@H](NC(=O)[C@@H](N)CCCCN)C(=O)N[C@@H](CCCCN)C(=O)N[C@@H](CCCNC(=N)N)C(=O)N[C@@H](CC(=O)O)C(=O)O (H-KAKRD-OH) | Non-toxic | inhibition [4]: Active; inhibition [5]: Active
6 | C[C@H](NC(=O)[C@@H](N)CCCCN)C(=O)N[C@@H](CCC(N)=O)C(=O)N[C@@H](CCCNC(=N)N)C(=O)N[C@@H](CC(=O)O)C(=O)O (H-KAQRD-OH) | Non-toxic | –
7 | CC[C@H](C)[C@H](NC(=O)[C@H](CS)NC(=O)CNC(=O)[C@@H](N)CCCCN)C(=O)N1CCC[C@H]1C(=O)N[C@@H](CC(C)C)C(=O)N1CCC[C@H]1C(=O)N[C@@H](CCCNC(=N)N)C(=O)O (H-KGCIPLPR-OH) | Non-toxic | –
8 | CSCC[C@H](NC(=O)[C@@H](N)CO)C(=O)N[C@@H](CC(=O)O)C(=O)N[C@@H](C)C(=O)N[C@@H](CC(C)C)C(=O)N[C@@H](CC(=O)O)C(=O)N[C@@H](CC(C)C)C(=O)N[C@H](C(=O)N[C@@H](CC(=O)O)C(=O)N[C@@H](CCCCN)C(=O)N[C@@H](CC(C)C)C(=O)N[C@H](C(=O)N[C@@H](CO)C(=O)O)C(C)C)[C@@H](C)O (H-SMDALDLTDKLVS-OH) | Non-toxic | –
9 | CC[C@H](C)[C@H](NC(=O)[C@H](C)NC(=O)[C@H](C)NC(=O)[C@H](Cc1ccccc1)NC(=O)[C@@H](NC(=O)[C@H](Cc1c[nH]c2ccccc12)NC(=O)[C@@H](N)C(C)C)[C@@H](C)CC)C(=O)N[C@@H](CC(N)=O)C(=O)N[C@@H](CCCNC(=N)N)C(=O)N[C@@H](CCCNC(=N)N)C(=O)O (H-VWIFAAINRR-OH) | Non-toxic | inhibition [4]: Active; Better Activity Observed; inhibition [5]: Active; Better Activity Observed; inhibition [6]: Active; pKd [7]: 6.07
10 | CC[C@H](C)[C@H](NC(=O)[C@H](Cc1c[nH]c2ccccc12)NC(=O)[C@@H](N)C(C)C)C(=O)N[C@@H](Cc1ccccc1)C(=O)N[C@@H](C)C(=O)N[C@@H](CCCCN)C(=O)N[C@@H](C)C(=O)N[C@@H](CCCCN)C(=O)N[C@@H](CCCNC(=N)N)C(=O)N[C@@H](CC(=O)O)C(=O)O (H-VWIFAKAKRD-OH) | Non-toxic | inhibition [4]: Active; inhibition [5]: Active
11 | CC[C@H](C)[C@H](NC(=O)[C@H](Cc1c[nH]c2ccccc12)NC(=O)[C@@H](N)C(C)C)C(=O)N[C@@H](CC(C)C)C(=O)N[C@@H](C)C(=O)N[C@@H](CCCCN)C(=O)N[C@@H](C)C(=O)N[C@@H](CCC(N)=O)C(=O)N[C@@H](CCCNC(=N)N)C(=O)N[C@@H](CC(=O)O)C(=O)O (H-VWILAKAQRD-OH) | Non-toxic | –
